pIC50: −log10 of the molar value. Active and inactive are the calls of the source. No cut-off for these calls is given here.
Legend:
K562 [1] = assay: Induction of apoptosis in human K562 cells assessed as viable cells at 25 nM measured after 48 hrs by Annexin V-FITC/PI staining based flow cytometry method (reference value: 94.41%); format: functional; conditions: read-out: Activity
K562 [2] = assay: Induction of apoptosis in human K562 cells assessed as increase in Bax level at 25 to 100 nM measured after 48 hrs by Western blot analysis; format: functional, cell-based; conditions: dose 25-100 nM
[3] = Toxicity in ICR mouse allografted with mouse H22 cells assessed as effect on spleen morphology at 10 to 20 mg/kg, iv administered once a day for 21 days after 7 days of tumor implantation by H and E staining method; format: organism-based; conditions: in vivo, 504 h, dose 10-20 mg/kg, time 21 day
K562 [4] = assay: Induction of cell cycle arrest in human K562 cells assessed as accumulation of cells at G2 phase at 100 nM measured after 48 hrs by propidium iodide staining-based flow cytometric analysis (reference value: 15.30%); format: functional
H22 = assay: Antitumor activity against mouse H22 cells allografted in ICR mouse assessed as reduction in tumor weight at 10 mg/kg, iv administered once a day for 21 days after 7 days of tumor implantation; format: functional; set-up: scale not given: the % may be the effect or the level left; conditions: time 21 day
K562 [5] = assay: Induction of cell cycle arrest in human K562 cells assessed as accumulation of cells at G1 phase at 25 nM measured after 48 hrs by propidium iodide staining-based flow cytometric analysis (reference value: 47.40%); format: functional
K562 [6] = assay: Induction of apoptosis in human K562 cells assessed as reduction in phosphorylated mTOR level measured after 48 hrs by Western blot analysis; format: functional, cell-based; conditions: dose 25-100 nM, DDE = dose-dependent effect
MGC-803 = assay: Antiproliferative activity against human MGC-803 cells assessed as reduction in cell viability incubated for 72 hrs by MTT assay; format: functional, cell-based; conditions: MGC-803, 72 h
K562 [7] = assay: Induction of apoptosis in human K562 cells assessed as increase in Bax/Bcl-2 ratio at 25 to 100 nM measured after 48 hrs by Western blot analysis; format: functional, cell-based; conditions: dose 25-100 nM
K562 [8] = assay: Induction of apoptosis in human K562 cells assessed as increase in caspase-3 level measured after 48 hrs by Western blot analysis; format: functional, cell-based; conditions: dose 25-100 nM, DDE = dose-dependent effect
K562 [9] = assay: Induction of apoptosis in human K562 cells assessed as necrotic cells at 50 nM measured after 48 hrs by Annexin V-FITC/PI staining based flow cytometry method (reference value: 0.44%); format: functional
K562 [10] = assay: Disruption of mitochondria in human K562 cells assessed as reduction of mitochondrial membrane potential measured after 48 hrs by JC-1 probe based fluorescence based assay; format: functional, cell-based; conditions: dose 25-100 nM, DDE = dose-dependent effect
K562 [11] = assay: Induction of apoptosis in human K562 cells assessed as reduction in phosphorylated ERK level measured after 48 hrs by Western blot analysis; format: functional, cell-based; conditions: dose 25-100 nM, DDE = dose-dependent effect
K562 [12] = assay: Induction of apoptosis in human K562 cells assessed as intracellular ROS generation at 100 uM measured after 48 hrs by DCFH-DA staining based flow cytometry method (reference value: 0.41%); format: functional
K562 [13] = assay: Induction of apoptosis in human K562 cells assessed as reduction in phosphorylated PI3K level measured after 48 hrs by Western blot analysis; format: functional, cell-based; conditions: dose 25-100 nM, DDE = dose-dependent effect
[14] = Toxicity in ICR mouse allografted with mouse H22 cells assessed as effect on kidney morphology at 10 to 20 mg/kg, iv administered once a day for 21 days after 7 days of tumor implantation by H and E staining method; format: organism-based; conditions: in vivo, 504 h, dose 10-20 mg/kg, time 21 day
K562 [15] = assay: Induction of cell cycle arrest in human K562 cells assessed as accumulation of cells at S phase at 100 nM measured after 48 hrs by propidium iodide staining-based flow cytometric analysis (reference value: 37.29%); format: functional
[16] = Toxicity in ICR mouse allografted with mouse H22 cells assessed as change in body weight at 10 to 20 mg/kg, iv administered once a day for 21 days after 7 days of tumor implantation measured every two days; format: organism-based; conditions: in vivo, 504 h, dose 10-20 mg/kg, time 21 day
K562 [17] = assay: Induction of cell cycle arrest in human K562 cells assessed as downregulation of cyclin B1 measured after 48 hrs by Western blot analysis; format: functional, cell-based; conditions: dose 25-100 nM, DDE = dose-dependent effect
[18] = Toxicity in ICR mouse allografted with mouse H22 cells assessed as effect on lung morphology at 10 to 20 mg/kg, iv administered once a day for 21 days after 7 days of tumor implantation by H and E staining method; format: organism-based; conditions: in vivo, 504 h, dose 10-20 mg/kg, time 21 day
K562 [19] = assay: Inhibition of MAPK signaling pathway in human K562 cells assessed as reduction in MEK level measured after 48 hrs by Western blot analysis; format: cell-based; conditions: dose 25-100 nM, DDE = dose-dependent effect
K562 [20] = assay: Induction of apoptosis in human K562 cells assessed as necrotic cells at 25 nM measured after 48 hrs by Annexin V-FITC/PI staining based flow cytometry method (reference value: 0.44%); format: functional

For C=C1C(=O)[C@]23[C@H](OC(=O)/C=C/c4ccncc4)[C@H]1CC[C@H]2[C@]12CCCC(C)(C)[C@H]1[C@H](O)[C@@]3(O)OC2, the viability at 0.025 µM (K562 [1]) was 82.5%, the Activity (K562 [2]) was “Active” and the Activity [3] was “Non-Toxic”. For the same molecule, the Activity (K562 [4]) was 30.83%, the Activity (H22) was 74.08% and the Activity (K562 [5]) was 39.5%. The Activity (K562 [6]) was “Dde”, the pIC50 (MGC-803) was 6.21 and the Activity (K562 [7]) was “Active”. The Activity (K562 [8]) was “Dde”, the Activity (K562 [9]) was 0.07% and the Activity (K562 [10]) was “Dde”. For the same molecule, the Activity (K562 [11]) was “Dde”, the Activity (K562 [12]) was 63.43% and the Activity (K562 [13]) was “Dde”. For the same molecule, the Activity [14] was “Non-Toxic”, the Activity (K562 [15]) was 35.31% and the Activity [16] was “Non-Toxic”. The Activity (K562 [17]) was “Dde”, the Activity [18] was “Non-Toxic” and the Activity (K562 [19]) was “Dde”. The Activity (K562 [20]) was 0.05%.

From ChEMBL document CHEMBL5154722, “Identification of new potent anticancer derivatives through simplifying the core structure and modification on their 14- hydroxyl group from oridonin” (Eur J Med Chem, 2022)
